# According to patent publication US20080292584A1 (priority 2005, published 2008):
# Where “and” joins values, the source holds several entries; their conditions need not be identical. Equal entries are not always repeated.
# Tests used:
# CYP2A6 [1] = molecular target: T1, CYP2A6 (Homo sapiens, UniProt P11509); assay: Inhibition of CYP2A6 activity in pooled human liver microsomes (coumarin 8 μM to 7-hydroxy coumarin); type: in vitro ADME
# T1 sequence (P11509 1-494): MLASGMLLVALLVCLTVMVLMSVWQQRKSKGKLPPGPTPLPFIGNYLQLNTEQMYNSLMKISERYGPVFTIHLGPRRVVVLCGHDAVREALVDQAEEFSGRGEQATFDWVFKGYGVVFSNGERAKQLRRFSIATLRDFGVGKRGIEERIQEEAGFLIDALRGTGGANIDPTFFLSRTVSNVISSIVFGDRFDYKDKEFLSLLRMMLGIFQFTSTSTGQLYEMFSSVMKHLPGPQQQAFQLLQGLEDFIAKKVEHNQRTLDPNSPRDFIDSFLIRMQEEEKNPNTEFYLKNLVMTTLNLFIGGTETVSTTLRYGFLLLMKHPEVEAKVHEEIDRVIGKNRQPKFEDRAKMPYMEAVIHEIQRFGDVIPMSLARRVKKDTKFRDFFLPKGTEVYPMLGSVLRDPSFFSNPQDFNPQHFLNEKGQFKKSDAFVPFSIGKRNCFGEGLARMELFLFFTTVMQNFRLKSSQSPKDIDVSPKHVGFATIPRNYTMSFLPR
# Experimental: All other incubations were for 30 minutes.
# Four replicates were performed.
# Two replicates were performed.
# CYP1A2 = assay: Induction/inhibition of CYP1A2 activity in cryopreserved human hepatocytes after 48 h exposure (phenacetin)
# From the text: Hepatocytes from three human donors were obtained from a cryopreserved hepatocyte bank (In Vitro Technologies, Inc., USA). After thawing, viable hepatocytes were transferred to collagen-coated 48-well plates for attachment in plating medium (DMEM stock (Dulbecco's modified Eagle's medium, supplemented with bovine serum albumin, fructose, N-(2-hydroxyethyl)piperazine-N′-(2-ethanesulfonate) (HEPES), and sodium bicarbonate), supplemented with antibiotics, bovine serum, hydrocortisone, insulin and minimum essential medium (MEM) nonessential amino acids). After attachment to the collagen matrix, plating medium was replaced with sandwich medium (plating medium supplemented with VITROGEN) and incubated until use.
# The supplemented KHB was replaced with 150 μL supplemented KHB containing the appropriate isoform-selective substrate and incubated for 4 hrs prior to termination by adding 150 μL ice-cold methanol, except for the CYP2C8 incubations which were terminated by adding 150 μL acetonitrile.
# All substrates were dissolved in acetonitrile.
# Replicate trials and controls were performed. […] Additionally, reference control samples were included to evaluate inducibility of CYP2B6, CYP2C9, and CYP2C19 in the test system.
# Mean specific activity values with associated p-values≦0.05 were deemed to be statistically significant.
# CYP2C9 = CYP2C9 (Homo sapiens, UniProt P11712); assay: Metabolism of metaxalone by expressed recombinant human CYP2C9 at 5 or 20 pmol (Example 4); conditions: for % Turnover Mean / [metaxalone] Mean / % Turnover % / [metaxalone]: 60 min; for % Turnover % / [metaxalone]: single replicates, listed as Metaxalone
# Chain of CYP2C9 (P11712 whole entry): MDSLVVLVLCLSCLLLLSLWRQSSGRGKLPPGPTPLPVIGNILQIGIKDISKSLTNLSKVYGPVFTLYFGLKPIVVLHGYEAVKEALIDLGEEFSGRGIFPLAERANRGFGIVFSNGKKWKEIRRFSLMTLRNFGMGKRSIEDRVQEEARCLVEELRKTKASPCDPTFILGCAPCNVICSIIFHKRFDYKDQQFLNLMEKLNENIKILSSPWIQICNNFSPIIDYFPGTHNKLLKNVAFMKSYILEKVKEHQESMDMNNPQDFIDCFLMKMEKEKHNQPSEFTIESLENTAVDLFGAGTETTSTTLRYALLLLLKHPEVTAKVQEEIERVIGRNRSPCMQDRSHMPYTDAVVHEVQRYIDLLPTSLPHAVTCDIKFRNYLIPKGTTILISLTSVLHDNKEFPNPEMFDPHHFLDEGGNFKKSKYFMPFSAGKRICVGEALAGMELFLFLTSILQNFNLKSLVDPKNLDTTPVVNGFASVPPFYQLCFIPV
# Experimental: For CYP2C9 and CYP2D6, SUPERSOMES singly-expressing different allelic variants of the cytochrome p450 isozyme were commercially available. For each of CYP2C9 and CYP2D6, only the *1 allele was tested in these experiments. […]
# CYP2A6 [2] = molecular target: T1, CYP2A6; assay: Metabolism of metaxalone by expressed recombinant human CYP2A6 (Example 1); conditions: 30 min;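 note: expressed P450 incubations started with NADPH regenerating system, 0.5 mL final volume, compared against metabolic negative controls, with background signal estimated from matrix controls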
# Experimental: Commercially available microsomes from baculovirus-infected insect cells containing singly-expressed recombinant wild-type (*1 allele) human CYP enzymes and cDNA-expressed human cytochrome p450 oxidoreductase [BD SUPERSOMES Enzymes; BD Biosciences Discovery Labware (Woburn, Mass.)] were used.
# After a 5-minute pre-incubation, an NADPH regenerating system (NRS) was added to the incubation mixtures to initiate reactions, with a final incubation volume of 0.5 mL. Incubations were continued for 30 minutes, and then terminated, except for those for CYP2C19, which were incubated for 36 minutes prior to termination.
# Matrix controls were performed to determine the background signal from the matrix components (microsomes (10 pmol p450), 01N Tris buffer, NRS, and 1% methanol). […] After a 5-minute pre-incubation, 2% sodium bicarbonate solution was added to the incubation mixtures. Incubation was for 30 minutes at a final volume of 0.5 mL. Matrix and metabolic negative controls were terminated by adding an equal volume of methanol. […] Analysis of samples was subsequent to storage at −70° C.
# CYP3A4 = CYP3A4 (Homo sapiens, UniProt P08684); assay: Metabolism of metaxalone by expressed recombinant human CYP3A4 at 5 or 20 pmol (Example 4); conditions: for percent turnover / % Turnover Mean / [metaxalone] Mean / % Turnover % / [metaxalone]: 60 min; for % Turnover % / [metaxalone]: single replicates, listed as Metaxalone
# Chain of CYP3A4 (P08684 2-503 limits assumed): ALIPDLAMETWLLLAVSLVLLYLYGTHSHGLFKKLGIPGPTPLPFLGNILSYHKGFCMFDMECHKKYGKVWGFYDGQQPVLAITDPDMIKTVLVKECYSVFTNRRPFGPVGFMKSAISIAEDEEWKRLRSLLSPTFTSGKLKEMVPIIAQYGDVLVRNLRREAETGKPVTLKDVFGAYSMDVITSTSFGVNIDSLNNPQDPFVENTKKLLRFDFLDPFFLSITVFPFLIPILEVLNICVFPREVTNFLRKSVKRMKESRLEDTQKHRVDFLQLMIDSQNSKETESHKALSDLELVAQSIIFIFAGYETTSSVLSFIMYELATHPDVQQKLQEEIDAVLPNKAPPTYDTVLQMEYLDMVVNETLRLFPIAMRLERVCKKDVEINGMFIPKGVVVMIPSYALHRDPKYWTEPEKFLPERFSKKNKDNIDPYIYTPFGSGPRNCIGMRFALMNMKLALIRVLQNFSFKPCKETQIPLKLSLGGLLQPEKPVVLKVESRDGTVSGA
# CYP2D6 = CYP2D6 (Homo sapiens, UniProt P10635); assay: Chemical inhibition of metaxalone turnover in human liver microsomes, CYP2D6 inhibitor quinidine; conditions: 7.5 μM metaxalone; 1 mg/mL HLM; 60 min; with quinidine; single replicates
# Chain of CYP2D6 (P10635 whole entry): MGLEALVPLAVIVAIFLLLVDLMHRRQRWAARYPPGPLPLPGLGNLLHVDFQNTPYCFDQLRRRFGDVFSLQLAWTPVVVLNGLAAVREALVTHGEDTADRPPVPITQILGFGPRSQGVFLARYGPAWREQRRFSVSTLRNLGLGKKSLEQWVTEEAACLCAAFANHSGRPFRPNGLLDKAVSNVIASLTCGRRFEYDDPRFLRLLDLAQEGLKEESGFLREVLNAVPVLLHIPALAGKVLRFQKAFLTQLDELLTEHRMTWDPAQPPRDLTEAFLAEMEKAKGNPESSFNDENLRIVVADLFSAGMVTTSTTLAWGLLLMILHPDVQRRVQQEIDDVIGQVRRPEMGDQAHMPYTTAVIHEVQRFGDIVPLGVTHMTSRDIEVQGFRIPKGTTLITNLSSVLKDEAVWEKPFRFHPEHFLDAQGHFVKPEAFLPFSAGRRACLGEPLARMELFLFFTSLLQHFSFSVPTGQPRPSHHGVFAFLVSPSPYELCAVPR
# Experimental: Human liver microsomes pooled from 15 individuals (male and female) (Pool HMMC-PL020; CellzDirect, Inc., In Vitro Products and Services Division) were used in some experiments of this study.
# % Turnover=100−{[TA(final)]/[mean of TA(0 min)]}×100,
# % Inhibition of Turnover=100{1−([TA(0 min)]−[TA(final-inhibitor)])/([TA(0 min)]−[TA(final-no inhibitor)])}.
# The inhibitors or vehicle control were incubated with the pooled human liver microsomes (1 mg/mL) and NADPH (1 mM) in 0.1 M phosphate buffer, pH 7.4. […] Incubations were conducted in triplicate and terminated by addition of organic solvent. Samples were extracted and analyzed by LC-MS/MS as described above.
# [3] = 0.75 μM metaxalone, 20 pmol cyp
structure (smiles),measurement,setting,value
"Cc1cc(C)cc(OCC2CNC(=O)O2)c1 (stereo not shown) [metaxalone, 5-[(3,5-dimethylphenoxy)methyl]-2-oxazolidinone]",inhibition of CYP activity at a statistically significant level,CYP2A6 [1]; 0.3-100 μM metaxalone,no tested concentration of metaxalone inhibited activity
same,Inhibitor,"CYP2A6 [1]; CYP isozyme 2A6, summary of studies",0
same,Percent of VC,CYP2A6 [1]; metaxalone 0.3 μM,96.9%
same,Specific Activity Individual,CYP2A6 [1]; metaxalone 0.3 μM,430 pmol/min/mg protein and 398 pmol/min/mg protein and 410 pmol/min/mg protein
same,Specific Activity Mean ± SD,CYP2A6 [1]; metaxalone 0.3 μM,413 ± 16.0 pmol/min/mg protein
same,Percent of VC,CYP2A6 [1]; metaxalone 1 μM,95.7%
same,Specific Activity Individual,CYP2A6 [1]; metaxalone 1 μM,399 pmol/min/mg protein and 409 pmol/min/mg protein and 414 pmol/min/mg protein
same,Specific Activity Mean ± SD,CYP2A6 [1]; metaxalone 1 μM,407 ± 7.36 pmol/min/mg protein
same,Percent of VC,CYP2A6 [1]; metaxalone 3 μM,102%
same,Specific Activity Individual,CYP2A6 [1]; metaxalone 3 μM,420 pmol/min/mg protein and 453 pmol/min/mg protein and 435 pmol/min/mg protein
same,Specific Activity Mean ± SD,CYP2A6 [1]; metaxalone 3 μM,436 ± 16.1 pmol/min/mg protein
same,Percent of VC,CYP2A6 [1]; metaxalone 30 μM,107%
same,Specific Activity Individual,CYP2A6 [1]; metaxalone 30 μM,433 pmol/min/mg protein and 461 pmol/min/mg protein and 471 pmol/min/mg protein
same,Specific Activity Mean ± SD,CYP2A6 [1]; metaxalone 30 μM,455 ± 19.7 pmol/min/mg protein
same,Percent of VC,CYP2A6 [1]; metaxalone 100 μM,94.8%
same,Specific Activity Individual,CYP2A6 [1]; metaxalone 100 μM,395 pmol/min/mg protein and 393 pmol/min/mg protein and 423 pmol/min/mg protein
same,Specific Activity Mean ± SD,CYP2A6 [1]; metaxalone 100 μM,404 ± 16.6 pmol/min/mg protein
same,Inducer/Inhibitor,CYP1A2,+
same,Percent of VC,"CYP1A2; Donor 2, Metaxalone 40 μM",197%
same,Acetaminophen formation Adjusted Mean ± SD,"CYP1A2; human, 4 h, 40 μM",0.0589 ± 0.00795 µM
same,Acetaminophen formation Adjusted Mean ± SD,"CYP1A2; human, 48 h, 4 μM",0.0443 ± 0.000214 µM
same,effect on CYP1A2 activity,"CYP1A2; human, hepatocytes, 48 h, 40 μM",induced CYP1A2 activity
same,% Turnover Mean,"CYP2C9; 0.75 μM metaxalone, 5 pmol cyp",1.6%
same,[metaxalone] Mean,"CYP2C9; 0.75 μM metaxalone, 5 pmol cyp",0.779 µM
same,% Turnover %,"CYP2C9; 0.75 μM metaxalone, 5 pmol cyp",6.1% and 5.4% and −6.8%
same,[metaxalone],"CYP2C9; 0.75 μM metaxalone, 5 pmol cyp",0.743 µM and 0.749 µM and 0.845 µM
same,% Turnover Mean,CYP2C9; [3],2.4%
same,[metaxalone] Mean,CYP2C9; [3],0.772 µM
same,% Turnover %,CYP2C9; [3],8.7% and 4.0% and −5.4%
same,[metaxalone],CYP2C9; [3],0.722 µM and 0.760 µM and 0.834 µM
same,% Turnover Mean,"CYP2C9; 7.5 μM metaxalone, 5 pmol cyp",7.9%
same,[metaxalone] Mean,"CYP2C9; 7.5 μM metaxalone, 5 pmol cyp",7.78 µM
same,% Turnover %,"CYP2C9; 7.5 μM metaxalone, 5 pmol cyp",14.3% and 2.9% and 6.4%
same,[metaxalone],"CYP2C9; 7.5 μM metaxalone, 5 pmol cyp",7.24 µM and 8.20 µM and 7.90 µM
same,% Turnover Mean,"CYP2C9; 7.5 μM metaxalone, 20 pmol cyp",3.7%
same,[metaxalone] Mean,"CYP2C9; 7.5 μM metaxalone, 20 pmol cyp",8.13 µM
same,% Turnover %,"CYP2C9; 7.5 μM metaxalone, 20 pmol cyp",−1.1% and 1.6% and 10.7%
same,[metaxalone],"CYP2C9; 7.5 μM metaxalone, 20 pmol cyp",8.54 µM and 8.31 µM and 7.54 µM
same,Substrate,"CYP2C9; CYP isozyme 2C9, summary of studies",+
same,Metaxalone Present Adjusted Individual,CYP2A6 [2]; metaxalone 0.5 μM,0.309 µM and 0.302 µM and 0.285 µM
same,Metaxalone Present Adjusted Mean ± SD,CYP2A6 [2]; metaxalone 0.5 μM,0.299 ± 0.0124 µM
same,Metaxalone Present Raw,CYP2A6 [2]; metaxalone 0.5 μM,0.1546 µM and 0.1511 µM and 0.1425 µM
same,Percent of Metabolic Negative Control Individual,CYP2A6 [2]; metaxalone 0.5 μM,99.5% and 97.2% and 91.7%
same,Percent of Metabolic Negative Control Mean ± SD,CYP2A6 [2]; metaxalone 0.5 μM,96.1 ± 3.99%
same,Metaxalone Present Adjusted Individual,CYP2A6 [2]; metaxalone 2.5 μM,1.58 µM and 1.60 µM and 1.65 µM
same,Metaxalone Present Adjusted Mean ± SD,CYP2A6 [2]; metaxalone 2.5 μM,1.61 ± 0.0373 µM
same,Metaxalone Present Raw,CYP2A6 [2]; metaxalone 2.5 μM,0.7913 µM and 0.7979 µM and 0.8264 µM
same,Percent of Metabolic Negative Control Individual,CYP2A6 [2]; metaxalone 2.5 μM,104% and 105% and 109%
same,Percent of Metabolic Negative Control Mean ± SD,CYP2A6 [2]; metaxalone 2.5 μM,106 ± 2.46%
same,Metaxalone Present Adjusted Individual,CYP2A6 [2]; metaxalone 25 μM,15.5 μM and 15.7 μM (2×)
same,Metaxalone Present Adjusted Mean ± SD,CYP2A6 [2]; metaxalone 25 μM,15.6 ± 0.0975 µM
same,Metaxalone Present Raw,CYP2A6 [2]; metaxalone 25 μM,7.764 µM and 7.85 µM and 7.846 µM
same,Percent of Metabolic Negative Control Individual,CYP2A6 [2]; metaxalone 25 μM,101% and 102% (2×)
same,Percent of Metabolic Negative Control Mean ± SD,CYP2A6 [2]; metaxalone 25 μM,102 ± 0.636%
same,percent turnover,"CYP3A4; 0.75 μM metaxalone, 5 pmol CYP450",17.9%
same,% Turnover Mean,"CYP3A4; 0.75 μM metaxalone, 5 pmol cyp",17.9%
same,[metaxalone] Mean,"CYP3A4; 0.75 μM metaxalone, 5 pmol cyp",0.585 µM
same,% Turnover %,"CYP3A4; 0.75 μM metaxalone, 5 pmol cyp",20.3% and 18.3% and 15.0%
same,[metaxalone],"CYP3A4; 0.75 μM metaxalone, 5 pmol cyp",0.567 µM and 0.582 µM and 0.605 µM
same,percent turnover,"CYP3A4; 0.75 μM metaxalone, 20 pmol CYP450",34.0%
same,% Turnover Mean,CYP3A4; [3],34.0%
same,[metaxalone] Mean,CYP3A4; [3],0.470 µM
same,% Turnover %,CYP3A4; [3],31.7% and 39.0% and 31.4%
same,[metaxalone],CYP3A4; [3],0.486 µM and 0.434 µM and 0.488 µM
same,percent turnover,"CYP3A4; 7.5 μM metaxalone, 5 pmol CYP450",16.6%
same,% Turnover Mean,"CYP3A4; 7.5 μM metaxalone, 5 pmol cyp",16.6%
same,[metaxalone] Mean,"CYP3A4; 7.5 μM metaxalone, 5 pmol cyp",6.43 µM
same,% Turnover %,"CYP3A4; 7.5 μM metaxalone, 5 pmol cyp",17.5% and 16.7% and 15.7%
same,[metaxalone],"CYP3A4; 7.5 μM metaxalone, 5 pmol cyp",6.36 µM and 6.43 µM and 6.50 µM
same,percent turnover,"CYP3A4; 7.5 μM metaxalone, 20 pmol CYP450",32.4%
same,% Turnover Mean,"CYP3A4; 7.5 μM metaxalone, 20 pmol cyp",32.4%
same,[metaxalone] Mean,"CYP3A4; 7.5 μM metaxalone, 20 pmol cyp",5.22 µM
same,% Turnover %,"CYP3A4; 7.5 μM metaxalone, 20 pmol cyp",34.3% and 32.8% and 30.0%
same,[metaxalone],"CYP3A4; 7.5 μM metaxalone, 20 pmol cyp",5.07 µM and 5.18 µM and 5.40 µM
same,Substrate,"CYP3A4; CYP isozyme 3A4, summary of studies",+
same,% Turnover,CYP2D6,11.1%
